Inhibitory activity data for 1 sequence are collected here from patent US8445428B2, “Plant derived antibiotic peptide rich in glycine” (Uniao Brasiliense de Educacao e Cultura—UBEC, priority 2006, dated 2013).

Common to all, as to type: cell-based
In one test the test system is Klebsiella sp. In words: Bioassay against bacteria: growth in LB medium, absorbance at 600 nm. The note with it: micromolar concentrations, 37° C. for 4 hours. The method, then:
(§1) The bioassays against bacteria were performed using 1.0 ml of Luria Bertani medium (NaCl 10 g.l^−1, yeast extract 5 g.l^−1 and bactopeptone […]). Two species, namely Klebsiella sp. and Proteus sp., were used, with the protein under test was restricted to micromolar concentrations. The bacteria grew in the LB medium during 16-18 hours at 37° C. before being evaluated with the proteins. Distilled water was used as negative control and chloramphenicol 40 μg.ml^−1 as positive control. Protein from guava seeds was incubated against the bacteria at 37° C. for 4 hours. Bacterial growth was assessed by an absorbance reading at 600 nm at each hour of the experiment. Each experiment was performed in triplicate.

Another test relates to Proteus sp. The test is described as above. The note with it: micromolar concentrations, 37° C. for 4 hours. The method, then:
as §1

Another test relates to Staphylococcus aureus. In words: Preliminary bioassays against gram-positive bacteria. The note with it: such as Staphylococcus aureus.

For “RESPSSRMECYEQAERYGYGGYGGGRYGGGYGSGRGQPVGQGVERSHDDNRNQPR (SEQ ID NO: 1) (RESPSSRMECYEQAERYGYGGYGGGRYGGGYGSGRGQPVGQGVERSHDDNRNQPR; listed as Psidium guajava) [Pg-AMP1, glycine rich anti-microbial peptide of 55 amino acids, about 5 kDa, purified from guava (Psidium guajava) seeds]”, the inhibitory activity in the test on Klebsiella sp. was 90%; in the test with Proteus sp. it was 30%; with Staphylococcus aureus it was “did not reveal any inhibitory activity”.
